Reference: ChEMBL document CHEMBL1765086, “Structural modifications of UMP, UDP, and UTP leading to subtype-selective agonists for P2Y2, P2Y4, and P2Y6 receptors” (J Med Chem, 2011)
pEC50: −log10 of the molar value.

How the values were obtained:
P2Y purinoceptor 4 [1] = target: T1, P2Y purinoceptor 4 (Homo sapiens, UniProt P51582); experiment: Agonist activity at human recombinant P2Y4 receptor expressed in human 1321N1 cells assessed as [3H]inositol phosphate intracellular accumulation by scintillation proximity assay; assay type: functional, cell-based
T1 sequence (P51582 whole entry): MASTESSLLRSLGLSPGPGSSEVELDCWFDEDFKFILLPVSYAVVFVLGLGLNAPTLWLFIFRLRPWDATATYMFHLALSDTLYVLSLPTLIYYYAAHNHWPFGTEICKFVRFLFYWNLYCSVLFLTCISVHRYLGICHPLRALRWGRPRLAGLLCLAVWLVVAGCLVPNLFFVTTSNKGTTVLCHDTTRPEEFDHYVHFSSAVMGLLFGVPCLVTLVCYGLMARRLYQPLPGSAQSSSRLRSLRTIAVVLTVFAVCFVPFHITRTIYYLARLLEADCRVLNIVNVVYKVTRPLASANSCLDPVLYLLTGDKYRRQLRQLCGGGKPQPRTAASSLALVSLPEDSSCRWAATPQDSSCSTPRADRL

P2Y purinoceptor 6 [2] = target: T2, P2Y purinoceptor 6 (Homo sapiens, UniProt Q15077); experiment: Agonist activity at human recombinant P2Y6 receptor expressed in human 1321N1 cells assessed as [3H]inositol phosphate intracellular accumulation by scintillation proximity assay; assay type: functional, cell-based
T2 sequence (Q15077 whole entry): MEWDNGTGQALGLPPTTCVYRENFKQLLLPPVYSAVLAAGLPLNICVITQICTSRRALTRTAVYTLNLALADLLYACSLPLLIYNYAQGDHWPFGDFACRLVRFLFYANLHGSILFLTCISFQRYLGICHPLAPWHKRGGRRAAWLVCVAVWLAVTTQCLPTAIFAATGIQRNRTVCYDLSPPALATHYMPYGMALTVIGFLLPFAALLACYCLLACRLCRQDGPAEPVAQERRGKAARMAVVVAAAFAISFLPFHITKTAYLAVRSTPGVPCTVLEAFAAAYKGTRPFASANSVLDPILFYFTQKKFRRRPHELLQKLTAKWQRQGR

P2Y purinoceptor 2 [3] = target: T3, P2Y purinoceptor 2 (Homo sapiens, UniProt P41231); experiment: Agonist activity at human recombinant P2Y2 receptor expressed in human 1321N1 cells assessed as [3H]inositol phosphate intracellular accumulation by scintillation proximity assay; assay type: functional, cell-based
T3 sequence (P41231 whole entry): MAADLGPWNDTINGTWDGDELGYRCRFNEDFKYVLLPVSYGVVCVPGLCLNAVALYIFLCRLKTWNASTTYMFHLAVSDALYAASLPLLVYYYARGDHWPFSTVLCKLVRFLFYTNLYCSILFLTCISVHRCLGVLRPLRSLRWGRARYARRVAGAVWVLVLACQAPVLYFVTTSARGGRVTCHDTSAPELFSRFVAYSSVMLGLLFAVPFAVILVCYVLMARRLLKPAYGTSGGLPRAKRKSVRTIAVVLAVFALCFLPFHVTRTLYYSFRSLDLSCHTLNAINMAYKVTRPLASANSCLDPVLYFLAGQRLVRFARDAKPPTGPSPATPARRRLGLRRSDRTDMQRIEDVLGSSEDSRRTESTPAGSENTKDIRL

P2Y purinoceptor 4 [4] = target: T1, P2Y purinoceptor 4; experiment: Agonist activity at P2Y4 receptor; assay type: functional
P2Y purinoceptor 6 [5] = target: T2, P2Y purinoceptor 6; experiment: Agonist activity at P2Y6 receptor; assay type: functional
Homo sapiens [6] = species on record: Homo sapiens; experiment: Selectivity ratio of EC50 for human P2Y4 receptor to EC50 for human P2Y2 receptor
Homo sapiens [7] = species on record: Homo sapiens; experiment: Selectivity ratio of EC50 for human P2Y6 receptor to EC50 for human P2Y2 receptor
P2Y purinoceptor 2 [8] = target: T3, P2Y purinoceptor 2; experiment: Ratio of compound EC50 to UDP EC50 for human recombinant P2Y2 receptor
P2Y purinoceptor 2 [9] = target: T3, P2Y purinoceptor 2; experiment: Agonist activity at P2Y2 receptor; assay type: functional
Homo sapiens [10] = species on record: Homo sapiens; experiment: Selectivity ratio of EC50 for human P2Y2 receptor to EC50 for human P2Y4 receptor
Homo sapiens [11] = species on record: Homo sapiens; experiment: Selectivity ratio of EC50 for human P2Y6 receptor to EC50 for human P2Y4 receptor
Homo sapiens [12] = species on record: Homo sapiens; experiment: Selectivity ratio of EC50 for human P2Y2 receptor to EC50 for human P2Y6 receptor
Homo sapiens [13] = species on record: Homo sapiens; experiment: Selectivity ratio of EC50 for human P2Y4 receptor to EC50 for human P2Y6 receptor

Compound | pEC50 (P2Y purinoceptor 4 [1]) | pEC50 (P2Y purinoceptor 6 [2]) | pEC50 (P2Y purinoceptor 2 [3]) | other results
O=c1ccn([C@@H]2O[C@H](COP(=O)(O)OP(=O)(O)O)[C@@H](O)[C@H]2O)c(SCCc2ccccc2)n1 | ≤ 4.00 | 5.60 | 6.26 | 
O=c1ccn([C@@H]2O[C@H](COP(=O)(O)OP(=O)(O)O)[C@@H](O)[C@H]2O)c(SCc2ccccc2)n1 | 5.22 | 5.17 | 5.21 | 
O=c1ccn([C@@H]2O[C@H](COP(=O)(O)OP(=O)(O)OP(=O)(O)OP(=O)(O)OC[C@H]3O[C@@H](n4ccc(=O)[nH]c4=O)[C@H](O)[C@@H]3O)[C@@H](O)[C@H]2O)c(=O)[nH]1 [DIQUAFOSOL TETRASODIUM] |  |  |  | pEC50 (P2Y purinoceptor 4 [4]): 6.40; pEC50 (P2Y purinoceptor 6 [5]): 5.70
CCCSc1nc(=O)ccn1[C@@H]1O[C@H](COP(=O)(O)O)[C@@H](O)[C@H]1O | < 4.00 | 5.21 | 5.32 | 
CNc1nc(=O)ccn1[C@@H]1O[C@H](COP(=O)(O)O)[C@@H](O)[C@H]1O | < 4.00 | < 4.00 | < 4.00 | 
O=c1ccn([C@@H]2O[C@H](COP(=O)(O)O)[C@@H](O)[C@H]2O)c(SCc2ccccc2)n1 | < 4.00 | < 4.00 | ≤ 4.00 | 
CSc1nc(=O)ccn1[C@@H]1O[C@H](COP(=O)(O)OP(=O)(O)O)[C@@H](O)[C@H]1O | 5.82 | 5.33 | 6.28 | Ratio EC50 (P2Y purinoceptor 2 [8]): 33
Nc1nc(=O)ccn1[C@@H]1O[C@H](COP(=O)(O)OP(=O)(O)O)[C@@H](O)[C@H]1O | ≤ 4.00 | ≤ 4.00 | 6.22 | Ratio EC50 (Homo sapiens [6]): > 100; Ratio EC50 (Homo sapiens [7]): > 100
Nc1ccn([C@H]2C[C@H](O)[C@@H](COP(=O)(O)OP(=O)(O)OP(=O)(O)OP(=O)(O)OC[C@H]3O[C@@H](n4ccc(=O)[nH]c4=O)[C@H](O)[C@@H]3O)O2)c(=O)n1 [DENUFOSOL TETRASODIUM] |  |  |  | pEC50 (P2Y purinoceptor 2 [9]): 6.70; pEC50 (P2Y purinoceptor 4 [4]): 6.10; pEC50 (P2Y purinoceptor 6 [5]): < 6.00
O=c1ccn([C@@H]2O[C@H](COP(=O)(O)OP(=O)(O)C(F)(F)P(=O)(O)O)[C@@H](O)[C@H]2O)c(=O)[nH]1 | < 4.00 | 5.58 | 5.31 | Ratio EC50 (Homo sapiens [7]): 2
O=c1ccn([C@@H]2O[C@H](COP(=O)(O)OP(=O)(O)C(Cl)(Cl)P(=O)(O)O)[C@@H](O)[C@H]2O)c(=O)[nH]1 | ≤ 4.00 | 5.21 | 6.21 | 
O=C(Cn1c(=O)ccn([C@@H]2O[C@H](COP(=O)(O)OP(=O)(O)C(Cl)(Cl)P(=O)(O)O)[C@@H](O)[C@H]2O)c1=O)c1ccccc1 | 5.14 | 6.85 | 6.08 | Ratio EC50 (Homo sapiens [12]): 6; Ratio EC50 (Homo sapiens [13]): 50
O=c1[nH]c(=O)n([C@@H]2O[C@H](COP(=O)(O)OP(=O)(O)OP(=O)(O)Nc3ccccc3)[C@@H](O)[C@H]2O)cc1Br | < 4.00 | 5.21 | 5.74 | 
CSc1nc(=O)ccn1[C@@H]1O[C@H](COP(=O)(O)O)[C@@H](O)[C@H]1O | < 4.00 | < 4.00 | 5.54 | 
COc1nc(=O)ccn1[C@@H]1O[C@H](COP(=O)(O)O)[C@@H](O)[C@H]1O | < 4.00 | 5.01 | 5.00 | 

Continued, in another order:

pEC50 (P2Y purinoceptor 4 [1]) | pEC50 (P2Y purinoceptor 6 [2]) | pEC50 (P2Y purinoceptor 2 [3]) | Compound | other results
4.85 | 7.32 | 4.78 | O=c1ccn([C@@H]2O[C@H](COP(=O)(O)OP(=O)(O)O)[C@@H](O)[C@H]2O)c(=O)[nH]1 [URIDINE_DIPHOSPHATE] | 
≤ 4.00 | < 4.00 | 5.12 | CNc1nc(=O)ccn1[C@@H]1O[C@H](COP(=O)(O)OP(=O)(O)O)[C@@H](O)[C@H]1O | 
5.31 | ≤ 4.00 | 5.92 | CCCSc1nc(=O)ccn1[C@@H]1O[C@H](COP(=O)(O)OP(=O)(O)O)[C@@H](O)[C@H]1O | 
5.35 | 5.86 | 6.04 | COc1nc(=O)ccn1[C@@H]1O[C@H](COP(=O)(O)OP(=O)(O)O)[C@@H](O)[C@H]1O | 
5.41 | 5.11 | 6.10 | O=c1ccn([C@@H]2O[C@H](COP(=O)(O)OP(=O)(O)C(Cl)(Cl)P(=O)(O)O)[C@@H](O)[C@H]2O)c(=S)[nH]1 | 
5.10 | 5.09 | 5.74 | O=c1[nH]c(=S)ccn1[C@@H]1O[C@H](COP(=O)(O)OP(=O)(O)C(Cl)(Cl)P(=O)(O)O)[C@@H](O)[C@H]1O | 
5.41 | 5.84 | 5.92 | O=C(Cn1c(=O)ccn([C@@H]2O[C@H](COP(=O)(O)OP(=O)(O)C(F)(F)P(=O)(O)O)[C@@H](O)[C@H]2O)c1=O)c1ccccc1 | 
7.05 |  | 7.75 | O=c1ccn([C@@H]2O[C@H](COP(=O)(O)OP(=O)(O)OP(=O)(O)O)[C@@H](O)[C@H]2O)c(=O)[nH]1 [URIDINE TRIPHOSPHATE] | 
< 4.00 | < 4.00 | < 4.00 | O=c1[nH]c(=S)ccn1[C@@H]1O[C@H](COP(=O)(O)O)[C@@H](O)[C@H]1O | 
5.03 | 5.15 | 6.87 | O=c1[nH]c(=S)ccn1[C@@H]1O[C@H](COP(=O)(O)OP(=O)(O)C(F)(F)P(=O)(O)O)[C@@H](O)[C@H]1O | Ratio EC50 (Homo sapiens [6]): > 60; Ratio EC50 (Homo sapiens [7]): > 60
< 4.00 | < 4.00 | 5.89 | O=c1ccn([C@@H]2O[C@H](COP(=O)(O)O)[C@@H](O)[C@H]2O)c(SCCc2ccccc2)n1 | Ratio EC50 (Homo sapiens [6]): > 100; Ratio EC50 (Homo sapiens [7]): 100
 | < 4.00 | < 4.00 | Nc1nc(=O)ccn1[C@@H]1O[C@H](COP(=O)(O)O)[C@@H](O)[C@H]1O | Ratio EC50 (Homo sapiens [6]): > 100; Ratio EC50 (Homo sapiens [7]): > 100; Ratio EC50 (Homo sapiens [10]): > 20; Ratio EC50 (Homo sapiens [11]): > 20
5.36 | < 4.00 | 5.82 | CCSc1nc(=O)ccn1[C@@H]1O[C@H](COP(=O)(O)O)[C@@H](O)[C@H]1O | 
7.64 |  | 7.59 | O=c1[nH]c(=S)ccn1[C@@H]1O[C@H](COP(=O)(O)OP(=O)(O)OP(=O)(O)O)[C@@H](O)[C@H]1O | pEC50 (P2Y purinoceptor 4 [4]): 7.64
